molecular target: T1, MAGE-A11:PCF11 interaction (GST-MAGE-A11 and FAM-PCF11_4) (Homo sapiens, UniProt P43364); experiment: TR-FRET primary / single point screen at 15 µM; format: binding; details: single point TR-FRET screening of 797 quinoline compounds against MAGE-A11:PCF11
T1 construct: GST-MAGE-A11 MHD (human MAGE-A11 MHD amino acid 218-429); made in house; host or cells: E. coli BL21(DE3)
T1 sequence (P43364 218-429): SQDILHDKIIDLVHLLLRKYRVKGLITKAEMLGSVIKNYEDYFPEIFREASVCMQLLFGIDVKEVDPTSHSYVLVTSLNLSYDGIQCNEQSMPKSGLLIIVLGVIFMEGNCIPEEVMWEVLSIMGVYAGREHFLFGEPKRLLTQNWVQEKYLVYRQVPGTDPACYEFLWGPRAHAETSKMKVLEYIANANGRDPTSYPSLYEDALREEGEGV
Description: The TR-FRET assay buffer with a formula of 50 mM Tris pH 7.5, 20 mM MgCl2, 0.1 mg/ml BSA and 1 mM DTT was freshly prepared before each experiment. All TR-FRET assays were performed in black 384-well plates with 20 µl/well assay volume in the TR-FRET assay buffer at room temperature (~25 °C). All peptides or compounds were solubilized in DMSO. To test the competitive activity of peptides or compounds against the interaction between GST-MAGE-A11 MHD and FAM-PCF11_4 peptide, 10 µl/well peptide or compound at specified concentration was dispensed into a black 384-well low volume plate, followed by 5 µl/well FAM-PCF11_4 (800 nM), 5 µl/well Tb-anti-GST (20 nM), and GST-MAGE-A11 MHD (20 nM). The assay components in each well was then mixed by shaking the plate on an IKA MTS 2/4 digital microtiter plate shaker (IKA Works; Wilmington, NC, USA) for 1 min. The plate was further centrifuged in an Eppendorf 5810 centrifuge with an A-4-62 swing-bucket rotor (Eppendorf AG, Hamburg, Germany) at 201 g for 30 s. The plate was then incubated for 90 min with a lid to avoid light exposure to the assay components. After incubation, the fluorescent emission signals at 520 nm and 490 nm channels of individual wells were measured with a PHERAstar FS plate reader (BMG Labtech; Durham, NC, USA) by using a 340 nm excitation filter, 100 µs delay time, and 200 µs integration time. The TR-FRET fluorescence emission ratio (TR-FRET signal) for each well was presented as 10,000 × 520 nm/490 nm, which was used directly for curve fitting, or further converted to %Inhibition based on the respective positive and negative controls. The graphic software GraphPad Prism 4.81 (GraphPad Software; La Jolla, CA, USA) was used to generate curves and derive IC50 values of tested peptides or compounds, if applicable. TR-FRET screen for identifying MAGE-A11 small molecule inhibitors was performed as follows. The primary one-concentration screening and subsequent 10 or 20-concentration dose-response tests were accomplished with an automated High Throughput Screening system (HighRes Biosolutions, Beverly, MA)[30]. In the primary screening, 15 µl/well FAM-PCF11_4 (267 nM) was first dispensed with a Multidrop Combi Reagent Dispenser (Thermo Fisher Scientific, Waltham, MA) to black 384-well low-volume assay plates. The plates were spun down with a Velocity11 VSpin microplate centrifuge (Agilent Technologies, Santa Clara, CA). In total, 30 nl/well of 10 mM compound/DMSO solutions, or DMSO alone, were transferred from compound plates (the St. Jude FDA drug and bioactive library, Drug-like library and Lead-like library) or a control plate to the assay plates with a Pin Tool (V&P Scientific, San Diego, CA). The compounds were arrayed in columns 3–12 and columns 15–24 of compound plates. The controls were arrayed in columns 1, 2, 13, and 14 of a compound plate. In all, 5 µl/well Tb-anti-GST (20 nM) and GST-MAGE-A11 (20 nM) or 5 µl/well Tb-anti-GST (20 nM) alone was then dispensed to selected wells with a Multidrop Combi Reagent Dispenser. The final assay volume was 20 µl/well. […] The final tested compound concentration was 15 µM. The final FAM-PCF11_4 concentration was 200 nM and the final Tb-anti-GST concentration was 5 nM. The final GST-MAGE-A11 concentration was 5 nM except for those selected positive control wells in which GST-MAGE-A11 was not presented. The plates were then shaken with a big bear shaker (Big Bear Automation, Santa Clara, California) and spun down with the Velocity11 VSpin microplate centrifuge for 20 s. The plates were then incubated at room temperature in a Liconic incubator (Liconic US, Woburn, MA) for 90 min. The TR-FRET signals for individual wells were measured with a PHERAstar FS plate reader. The %Inhibition of each tested inhibitor was calculated by using Eq. 1. Those inhibitors with %Inhibition >30% in the primary screening were selected for further dose-response test, along with additional newly synthesized compounds. […]

Row | SMILES | percent inhibition (TR-FRET)
1 | CN(C)CCNc1c2c(nc3ccccc13)CCC2 [SJ000013622] | 3.285
2 | O=C(O)CCCNC(=O)CNc1c2ccccc2nc2ccccc12 [SJ000016432] | 9.598
3 | CC(Nc1c2ccccc2nc2ccccc12)C(=O)NC(CC(N)=O)C(=O)O (stereo not drawn) [SJ000016433] | 22.7145
4 | CCOC(=O)c1cnc2c(ccc3ccccc32)c1NCCN(C)C [SJ000019487] | 6.418
5 | CCN(CC)CC(=O)Nc1c2c(nc3ccccc13)CCCC2 [SJ000019523] | 2.741
6 | CCOC(=O)c1cnc2c(C)cc(Cl)cc2c1NCCN(C)C [SJ000027210] | 3.834
7 | CCOC(=O)c1cnc2c(Cl)c(Cl)ccc2c1NCCN(C)C [SJ000027266] | 2.575
8 | CCOC(=O)c1cnc2ccc(C)cc2c1NCCN1CCOCC1 [SJ000027268] | -0.3915
9 | CCOC(=O)c1cnc2ccc(OCC)cc2c1NCCN(C)C [SJ000027288] | 10.6575
10 | CCOC(=O)c1cnc2ccc(OCC)cc2c1NCCN1CCOCC1 [SJ000027289] | 5.291
11 | CCOC(=O)c1cnc2ccc(Br)cc2c1NCCN1CCOCC1 [SJ000031339] | -47.2425
12 | CCOC(=O)c1ccc2ncc(C(=O)OCC)c(NCCN3CCOCC3)c2c1 [SJ000031347] | 0.6542
13 | CCOC(=O)c1cnc2c(C)c(Cl)ccc2c1NCCN(C)C [SJ000037393] | -1.333
14 | CCOC(=O)c1cnc2c(C)cc(C)cc2c1NCCN(C)C [SJ000037396] | 4.92
15 | CCc1nc2ccccc2c(NC(=O)CNC(C)(C)CC(C)(C)C)c1C [SJ000049110] | -0.6045
16 | CCN(CC)CC(=O)Nc1c2c(nc3ccccc13)CCC2 [SJ000049655] | 0.6542
17 | Cc1ccc2ncc(S(=O)(=O)c3ccccc3)c(N3CCN(C)CC3)c2c1 [SJ000083945] | -8.419
18 | CCc1ccc2ncc(S(=O)(=O)c3ccccc3)c(N3CCN(C)CC3)c2c1 [SJ000083946] | -6.249
19 | COc1ccc2ncc(S(=O)(=O)c3ccccc3)c(N3CCN(C)CC3)c2c1 [SJ000083947] | -2.0938
20 | CCOc1ccc2ncc(S(=O)(=O)c3ccccc3)c(N3CCN(C)CC3)c2c1 [SJ000083948] | -3.938
21 | CN1CCN(c2c(S(=O)(=O)c3ccccc3)cnc3ccc(F)cc23)CC1 [SJ000083949] | -11.5001
22 | CN1CCN(c2c(S(=O)(=O)c3ccccc3)cnc3ccc(Cl)cc23)CC1 [SJ000083950] | -5.3743

Row | SMILES | percent inhibition (TR-FRET)
23 | COc1cc2ncc(S(=O)(=O)c3ccc(C)cc3)c(N3CCN(C)CC3)c2cc1OC [SJ000083951] | 1.3128
24 | COc1ccc2ncc(S(=O)(=O)c3ccc(Cl)cc3)c(N3CCN(C)CC3)c2c1 [SJ000083952] | -3.658
25 | COc1cc2ncc(S(=O)(=O)c3ccc(Cl)cc3)c(N3CCN(C)CC3)c2cc1OC [SJ000083953] | 4.674
26 | CCc1ccc2ncc(S(=O)(=O)c3ccc(OC)cc3)c(N3CCN(C)CC3)c2c1 [SJ000083954] | -5.969
27 | COc1ccc(S(=O)(=O)c2cnc3cc(OC)c(OC)cc3c2N2CCN(C)CC2)cc1 [SJ000083955] | 0.8227
28 | CCN1CCN(c2c(S(=O)(=O)c3ccccc3)cnc3ccc(C)cc23)CC1 [SJ000083956] | -3.448
29 | CCc1ccc2ncc(S(=O)(=O)c3ccccc3)c(N3CCN(CC)CC3)c2c1 [SJ000083957] | 3.238
30 | CCN1CCN(c2c(S(=O)(=O)c3ccccc3)cnc3ccc(OC)cc23)CC1 [SJ000083958] | 0.1242
31 | CCOc1ccc2ncc(S(=O)(=O)c3ccccc3)c(N3CCN(CC)CC3)c2c1 [SJ000083959] | 4.534
32 | CCN1CCN(c2c(S(=O)(=O)c3ccccc3)cnc3ccc(Cl)cc23)CC1 [SJ000083960] | 4.43
33 | CCN1CCN(c2c(S(=O)(=O)c3ccc(C)cc3)cnc3ccc(C)cc23)CC1 [SJ000083961] | 0.2213
34 | CCc1ccc2ncc(S(=O)(=O)c3ccc(C)cc3)c(N3CCN(CC)CC3)c2c1 [SJ000083962] | 2.377
35 | CCN1CCN(c2c(S(=O)(=O)c3ccc(C)cc3)cnc3ccc(OC)cc23)CC1 [SJ000083963] | -3.917
36 | CCOc1ccc2ncc(S(=O)(=O)c3ccc(C)cc3)c(N3CCN(CC)CC3)c2c1 [SJ000083964] | -5.899
37 | CCN1CCN(c2c(S(=O)(=O)c3ccc(C)cc3)cnc3cc(OC)c(OC)cc23)CC1 [SJ000083965] | 7.146
38 | CCN1CCN(c2c(S(=O)(=O)c3ccc(C)cc3)cnc3ccc(Cl)cc23)CC1 [SJ000083966] | -4.358
39 | CCN1CCN(c2c(S(=O)(=O)c3ccc(Cl)cc3)cnc3ccc(C)cc23)CC1 [SJ000083967] | -3.0982
40 | CCc1ccc2ncc(S(=O)(=O)c3ccc(Cl)cc3)c(N3CCN(CC)CC3)c2c1 [SJ000083968] | -19.1318
41 | CCOc1ccc2ncc(S(=O)(=O)c3ccc(Cl)cc3)c(N3CCN(CC)CC3)c2c1 [SJ000083969] | -4.989
42 | CCN1CCN(c2c(S(=O)(=O)c3ccc(Cl)cc3)cnc3cc(OC)c(OC)cc23)CC1 [SJ000083970] | -6.809
43 | CCOc1ccc2ncc(S(=O)(=O)c3ccc(OC)cc3)c(N3CCN(CC)CC3)c2c1 [SJ000083971] | -6.389

same assay, conditions: single point TR-FRET screening of quinoline compounds against MAGE-A11:PCF11; 15 µM

Row | SMILES | percent inhibition (TR-FRET)
44 | Clc1ccc2c(NCCCNCc3ccco3)ccnc2c1 [SJ000000502] | 6.349
45 | CN(C)CCCNc1c2c(nc3ccccc13)CCC2 [SJ000029259] | 24.0531
46 | CCOC(=O)c1cnc2c(C)cc(C)cc2c1NCCCN(C)C [SJ000037397] | 14.9289
47 | CN(C)CCCNc1c2ccccc2nc2ccccc12 [SJ000044378] | 16.7674
48 | NC(=O)CC(Nc1c2ccccc2nc2ccccc12)C(=O)O (stereo not drawn) [SJ000044383] | 20.1038
